Test [1] deals with H929 multiple myeloma tumor line. In words: In vitro cytotoxicity, MTT assay (Example B, Method A). The test is classed as cell-based. Conditions: H929 cells, 48 hours exposure, read-out: C50. On the procedure: The cytotoxicity studies were carried out on the H929 multiple myeloma tumor line.
The cells are distributed onto microplates and exposed to the test compounds for 48 hours. The cell viability is then quantified by a colorimetric assay, the Microculture Tetrazolium Assay (Carmichael et al, Cancer Res. 1987, 47, 939-942).
The results are expressed in C50 which means concentration corresponding to […] of effect/inhibition.
Background: Tetrazolium dyes change colour on reduction, which living cells bring about.

Another test has as its target Mcl-1 protein (UniProtKB Q07820) (Homo sapiens (Human), UniProt Q07820). Briefly: Inhibition of Mcl-1 by the fluorescence polarisation assay (Example A, Method A). The format is binding. Conditions: fluorescence polarization assay. The essentials:
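Protein (5 nM) and fluorescein-tagged peptide tracer (1 nM) incubated with 11-point compound series for 2 h at room temperature in HEPES/NaCl/Tween 20 buffer, pH 7.4, 5% DMSO. Displacement read as decrease in polarisation; IC50 fitted by 4-parameter logistic, converted to Ki (cKi or eKi).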
In general terms: Polarisation of emitted light reports the rotation of a fluorescent probe.

For 17 molecules, IC50 and Ki results are on record in US20240150293A1, “SPIROCYCLOHEXANE DERIVATIVES, PHARMACEUTICAL COMPOSITIONS CONTAINING THEM AND THEIR USES AS ANTI-APOPTOTIC INHIBITORS” (LES LABORATOIRES SERVIER, priority 2021, published 2024).

SMILES strings stand for the structures. Where two headings read alike, the source gives them in different places.

Chain of Mcl-1 protein (Q07820 whole entry): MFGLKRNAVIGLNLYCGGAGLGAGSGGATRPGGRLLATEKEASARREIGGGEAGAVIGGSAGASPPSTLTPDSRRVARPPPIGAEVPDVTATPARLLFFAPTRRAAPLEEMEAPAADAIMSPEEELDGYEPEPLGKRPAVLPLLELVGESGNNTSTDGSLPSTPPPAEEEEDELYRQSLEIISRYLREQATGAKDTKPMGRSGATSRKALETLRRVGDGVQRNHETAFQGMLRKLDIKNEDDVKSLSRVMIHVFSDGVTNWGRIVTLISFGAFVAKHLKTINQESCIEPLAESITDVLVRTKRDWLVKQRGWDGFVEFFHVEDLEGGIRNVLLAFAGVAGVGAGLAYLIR

In general, Ki refers to a measure of affinity in units of concentration, obtained from inhibition or displacement. `O=C(O)[C@]1(Nc2cccc(Cl)c2)CC[C@@]2(CC1)c1ccccc1CC2CCCOc1ccnc2ccccc12` (stereo partly shown) [Example 444, (1r,4r)-4-(3-chloroanilino)-2′-{3-[(quinolin-4-yl)oxy]propyl}-2′,3′-dihydrospiro[cyclohexane-1,1′-indene]-4-carboxylic acid]: the IC50 in test [1] (Homo sapiens, NCI-H929, 48 h) was found to be 5440 nM. Further, the Ki on Mcl-1 protein worked out at 85.2 nM.
`C[C@@H](COc1ccncc1)C[C@H]1Cc2ccccc2[C@]12CC[C@@](Nc1cccc(Cl)c1)(C(=O)O)CC2` [Example 582, (1r,2′S,4S)-4-(3-chloroanilino)-2′-{(2R)-2-methyl-3-[(pyridin-4-yl)oxy]propyl}-2′,3′-dihydrospiro[cyclohexane-1,1′-indene]-4-carboxylic acid]: in test [1] (Homo sapiens, NCI-H929, 48 h), the IC50 is 2550 nM. Moreover, at Mcl-1 protein, the Ki was 51.9 nM.
The like results for `C[C@@H](COc1cccnc1)C[C@H]1Cc2ccccc2[C@]12CC[C@@](Nc1cccc(Cl)c1)(C(=O)O)CC2` [Example 568, (1r,2′S,4S)-4-(3-chloroanilino)-2′-{(2R)-2-methyl-3-[(pyridin-3-yl)oxy]propyl}-2′,3′-dihydrospiro[cyclohexane-1,1′-indene]-4-carboxylic acid] were, in that order, 18300 nM and 438 nM.
The like results for `O=C(O)[C@]1(Nc2cccc(Cl)c2)CC[C@]2(CC1)C(C#CCOc1ccccc1)=Cc1ccccc12` [Example 172, (1s,4s)-4-(3-chloroanilino)-2′-(3-phenoxyprop-1-yn-1-yl)spiro[cyclohexane-1,1′-indene]-4-carboxylic acid] were, in that order, 18700 nM and 55.8 nM.
On the same counts, the results for `O=C(O)[C@]1(Nc2cccc(Cl)c2)CC[C@@]2(CC1)c1ccccc1CC2CCCOc1ccnc2[nH]ccc12` (stereo partly shown) [Example 445, (1r,4r)-4-(3-chloroanilino)-2′-{3-[(1H-pyrrolo[2,3-b]pyridin-4-yl)oxy]propyl}-2′,3′-dihydrospiro[cyclohexane-1,1′-indene]-4-carboxylic acid] are 5350 nM and 75.3 nM.
`CC(C)C(COc1cccnc1)CC1Cc2ccccc2[C@]12CC[C@@](Nc1cccc(Cl)c1)(C(=O)O)CC2` (single isomer, unassigned) [Example 526, (1r,4r)-4-(3-chloroanilino)-2′-(3-methyl-2-{[(pyridin-3-yl)oxy]methyl}butyl)-2′,3′-dihydrospiro[cyclohexane-1,1′-indene]-4-carboxylic acid]: the IC50 in test [1] (Homo sapiens, NCI-H929, 48 h) came to 30000 nM. In addition, the Ki at Mcl-1 protein turned out to be 1860 nM.
The like results for `O=C(O)[C@]1(Nc2cccc(Cl)c2)CC[C@@]2(CC1)c1ccccc1C[C@H]2C[C@@H](COc1cccnc1)c1ccccc1` [Example 549, (1r,2′R,4R)-4-(3-chloroanilino)-2′-{(2R)-2-phenyl-3-[(pyridin-3-yl)oxy]propyl}-2′,3′-dihydrospiro[cyclohexane-1,1′-indene]-4-carboxylic acid] were, in that order, 17900 nM and 9480 nM.
The like results for `O=C(O)[C@]1(Nc2cccc(Cl)c2)CC[C@@]2(CC1)c1ccccc1C[C@H]2c1cc2ccccc2o1` [Example 337, (1r,2′R,4R)-2′-(1-benzofuran-2-yl)-4-(3-chloroanilino)-2′,3′-dihydrospiro[cyclohexane-1,1′-indene]-4-carboxylic acid] were, in that order, 30000 nM and 247 nM.
Take `CC1CCc2nccc(OC[C@H](C)C[C@H]3Cc4ccccc4[C@]34CC[C@@](Nc3cccc(Cl)c3)(C(=O)O)CC4)c2C1` (stereo partly drawn) [Example 651, (1r,2′S,4S)-4-(3-chloroanilino)-2′-{(2R)-2-methyl-3-[(6-methyl-5,6,7,8-tetrahydroquinolin-4-yl)oxy]propyl}-2′,3′-dihydrospiro[cyclohexane-1,1′-indene]-4-carboxylic acid]: in test [1] (Homo sapiens, NCI-H929, 48 h), the IC50 came out at 1260 nM. Besides, the inhibitory constant (Ki) at Mcl-1 protein is 17.9 nM.
The like results for `CNc1cc(OC[C@H](C)C[C@H]2Cc3ccccc3[C@]23CC[C@@](Nc2cccc(Cl)c2)(C(=O)O)CC3)ccn1` [Example 585, (1r,2′S,4S)-4-(3-chloroanilino)-2′-[(2R)-2-methyl-3-{[2-(methylamino)pyridin-4-yl]oxy}propyl]-2′,3′-dihydrospiro[cyclohexane-1,1′-indene]-4-carboxylic acid] were, in that order, 2610 nM and 36 nM.
On the same counts, the results for `O=C(O)[C@]1(Nc2cccc(Cl)c2)CC[C@@]2(CC1)c1ccccc1C[C@@H]2C[C@@H](COc1ccccc1)c1ccccc1` [Example 556, (1r,2′S,4S)-4-(3-chloroanilino)-2′-[(2R)-3-phenoxy-2-phenylpropyl]-2′,3′-dihydrospiro[cyclohexane-1,1′-indene]-4-carboxylic acid] are 19300 nM and 7190 nM.
On to `Cc1csc2nccc(OC[C@H](C)C[C@H]3Cc4ccccc4[C@]34CC[C@@](Nc3cccc(Cl)c3)(C(=O)O)CC4)c12` [Example 605, (1r,2′S,4S)-4-(3-chloroanilino)-2′-{(2R)-2-methyl-3-[(3-methylthieno[2,3-b]pyridin-4-yl)oxy]propyl}-2′,3′-dihydrospiro[cyclohexane-1,1′-indene]-4-carboxylic acid], for which the IC50 in test [1] (Homo sapiens, NCI-H929, 48 h) came out at 906 nM. Moreover, on Mcl-1 protein, the Ki is 24.2 nM.
Turning to `CC(C)C(COc1ccccc1)CC1Cc2ccccc2[C@]12CC[C@@](Nc1cccc(Cl)c1)(C(=O)O)CC2` (single isomer, unassigned) [Example 529, (1r,4r)-4-(3-chloroanilino)-2′-[3-methyl-2-(phenoxymethyl)butyl]-2′,3′-dihydrospiro[cyclohexane-1,1′-indene]-4-carboxylic acid], the IC50 in test [1] is 25300 nM. Further, on Mcl-1 protein, the Ki amounted to 4310 nM.
Take `Cc1c[nH]c2cccc(OCCC[C@@H]3Cc4ccccc4[C@]34CC[C@@](Nc3cccc(Cl)c3)(C(=O)O)CC4)c12` [Example 483, (1r,2′R,4R)-4-(3-chloroanilino)-2′-{3-[(3-methyl-1H-indol-4-yl)oxy]propyl}-2′,3′-dihydrospiro[cyclohexane-1,1′-indene]-4-carboxylic acid]: in test [1] (Homo sapiens, NCI-H929, 48 h), the IC50 came to 4170 nM. For the same molecule, the Ki on Mcl-1 protein turned out to be 174 nM.
On the same counts, the results for `O=C(O)[C@]1(Nc2cccc(Cl)c2)CC[C@@]2(CC1)c1ccccc1C[C@H]2C[C@H](COc1ccncc1)c1ccccc1` [Example 554, (1r,2′R,4R)-4-(3-chloroanilino)-2′-{(2S)-2-phenyl-3-[(pyridin-4-yl)oxy]propyl}-2′,3′-dihydrospiro[cyclohexane-1,1′-indene]-4-carboxylic acid] are 30000 nM and 323 nM.
Turning to `C[C@@H](COc1ccnc2c1CCC[C@@H]2O)C[C@H]1Cc2ccccc2[C@]12CC[C@@](Nc1cccc(Cl)c1)(C(=O)O)CC2` [Example 669, (1r,2′S,4S)-4-(3-chloroanilino)-2′-[(2R)-3-{[(8S)-8-hydroxy-5,6,7,8-tetrahydroquinolin-4-yl]oxy}-2-methylpropyl]-2′,3′-dihydrospiro[cyclohexane-1,1′-indene]-4-carboxylic acid], the IC50 in test [1] (Homo sapiens, NCI-H929, 48 h) is 1520 nM. Also, the Ki at Mcl-1 protein is 32.3 nM.
For `C[C@@H]1CCc2ncnc(OCCCC3Cc4ccccc4[C@]34CC[C@@](Nc3cccc(Cl)c3)(C(=O)O)CC4)c21` (stereo partly drawn) [Example 472, (1r,4R)-4-(3-chloroanilino)-2′-(3-{[(5R)-5-methyl-6,7-dihydro-5H-cyclopenta[d]pyrimidin-4-yl]oxy}propyl)-2′,3′-dihydrospiro[cyclohexane-1,1′-indene]-4-carboxylic acid], the IC50 in test [1] (Homo sapiens, NCI-H929, 48 h) stood at 5040 nM. For the same molecule, the inhibition constant (Ki) at Mcl-1 protein came out at 33 nM.
